Target: T1, ovine COX2 (Ovis aries, UniProt P79208)
T1 sequence (P79208 17-603): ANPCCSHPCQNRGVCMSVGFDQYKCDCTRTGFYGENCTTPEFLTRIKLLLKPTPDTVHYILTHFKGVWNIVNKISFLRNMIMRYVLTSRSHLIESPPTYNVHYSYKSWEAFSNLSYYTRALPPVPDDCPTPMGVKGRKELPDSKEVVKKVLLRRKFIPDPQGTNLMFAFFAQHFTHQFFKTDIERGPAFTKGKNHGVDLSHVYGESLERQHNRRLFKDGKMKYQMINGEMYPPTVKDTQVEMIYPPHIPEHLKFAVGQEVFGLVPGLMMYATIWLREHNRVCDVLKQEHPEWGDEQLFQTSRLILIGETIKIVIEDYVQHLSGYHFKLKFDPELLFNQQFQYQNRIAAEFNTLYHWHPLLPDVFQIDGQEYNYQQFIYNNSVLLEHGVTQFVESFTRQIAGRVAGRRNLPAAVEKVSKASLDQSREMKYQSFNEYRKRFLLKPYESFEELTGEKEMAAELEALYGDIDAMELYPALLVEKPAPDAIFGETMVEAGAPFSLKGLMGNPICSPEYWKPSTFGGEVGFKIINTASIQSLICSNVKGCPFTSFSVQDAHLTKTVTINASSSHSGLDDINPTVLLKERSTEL
Test: IC50 assay, Cayman colorimetric COX inhibitor screening assay kit
Conditions: FIG. 2, 10 duplicate concentrations
Method: Various concentrations of the ^19F-COX2 compound ranging from 0.1 μM to 0.3 nM were dispensed into designated wells within a 96-well microtiter plate at a final volume of 220 μL per well. Each well contained an assay buffer, heme, and ovine COX2 provided in Cayman's colorimetric COX inhibitor screening assay kit. […] Five minutes after incubation of all assay components at 25° C., an arachidonic acid substrate at a final concentration of 100 μM and the colorimetric co-substrate N,N,N′,N′-tetramethyl-p-phenylenediamine were added to each well. The plate was then incubated at 25° C. for an additional 5 min before reading the absorbance at 590 nm using a plate reader. Absorbance of the duplicate assay of each well was averaged and subtracted from the 100% initial activity sample, after which it was divided by the 100% initial activity sample and multiplied by 100 to arrive at the percentage of inhibition.

SMILES: Cc1csc(Cc2c3cccccc-3c(C(=O)c3ccc(F)cc3)c2C)n1 [^19F-COX2]
- Hill slope of the inhibition curve: −0.62

Source: patent US9266847B2, “Compounds, probes, and methods of synthesis and methods of imaging COX-2-associated diseases” (Vanderbilt University, priority 2012, dated 2016)
